# In publication PMC9455983 (International Journal of Molecular Sciences, 2022):
# Read-outs that look alike come from different tables or passages of the source.
# Legend:
# mu-opioid receptor (MOR) = target: T1, mu-opioid receptor (MOR) (Rattus norvegicus, UniProt P33535); test: MOR radioligand competition binding assay ([3H]-DAMGO); conditions: Mu screening results
# T1 construct: Rat cortices were homogenized using 50 mM Tris, pH 7.4, and centrifuged at 16,500 rpm for 10 min; from tissue; host or cells: rat cortex membranes
# Procedure: MOR binding assay: Rat cortices were homogenized using 50 mM Tris, pH 7.4, and centrifuged at 16,500 rpm for 10 min. The pellets were resuspended in fresh buffer and incubated at 37 °C for 30 min. Following incubation, the suspensions were centrifuged as before, the resulting pellets were resuspended in 100 volumes of 50 mM Tris, pH 7.4 plus 2 mg/mL bovine serum and the suspensions combined. Each assay tube contained 0.5 mL of membrane suspension, 2 nM [^3H]-DAMGO, and 0.02 mg/mL mixture in a total volume of 0.65 mL [13, 45, 53, 55].
# (§1) All three binding assays were terminated by filtration through GF/B filters, soaked in 5 mg/mL bovine serum albumin, 50 mM Tris, pH 7.4, on a Tomtec Mach II Harvester 96. The filters were subsequently washed with 6 mL of assay buffer. Bound radioactivity was counted on a Wallac Betaplate Liquid Scintillation Counter. Experiments were conducted using two replicates and repeated twice. Values in Scheme 2 represent the mean ± SD of two experiments with two replicates in each test.
# [1] = target: T2, kappa-opioid receptor (KOR) (Cavia porcellus, UniProt P41144); test: KOR radioligand competition binding assay ([3H]U69,593); set-up: species or system guinea pig; conditions: Kappa screening results
# T2 construct: Guinea pig cortices and cerebella were homogenized using 50 mM Tris, pH 7.4; from tissue; host or cells: guinea pig cortex and cerebellum membranes
# Procedure: KOR binding assay: Guinea pig cortices and cerebella were homogenized using 50 mM Tris, pH 7.4, 10 mM MgCl2-6H2O, […] centrifuged and incubated as above. Each assay tube contained 2 nM [^3H]U69,593. Assay tubes were incubated for 2 h at 25 °C. Unlabeled U50,488 was used as a competitor to generate a standard curve and determine nonspecific binding.
# as §1
# [2] = target: T3, delta-opioid receptor (DOR) (Rattus norvegicus, UniProt P33533); test: DOR radioligand competition binding assay ([3H]-DPDPE); conditions: Delta screening results
# T3 construct: Rat cortices were homogenized using 50 mM Tris, pH 7.4, 10 mM MgCl2-6H2O, 200 µM PMSF; from tissue; host or cells: rat cortex membranes
# Procedure: DOR binding assay: Rat cortices were homogenized using 50 mM Tris, pH 7.4, 10 mM MgCl2-6H2O, 200 µM PMSF, centrifuged and incubated as above. Each assay tube contained 2 nM [^3H]-DPDPE. Assay tubes were incubated for 2.5 h at 25 °C. Unlabeled DPDPE was used as a competitor to generate a standard curve and determine nonspecific binding.
# as §1
# [3] = experiment 1, unit inferred, read-out: Ki (Exp 1)
# [4] = experiment 2, unit inferred, read-out: Ki (Exp 2)
# [5] = mean of Exp 1 and Exp 2, unit inferred, read-out: MEAN (Ki)
# [6] = mean of two experiments, read-out: Ki
# [7] = first Ki column, unit not printed (apparently M), read-out: Ki (first column)
# [8] = mean of both Ki, unit inferred, read-out: MEAN (Ki)
# [9] = second Ki column, unit not printed (apparently M), read-out: Ki (second column)
Structure (SMILES),Ki (mu-opioid receptor (MOR); [3]) [µM],Ki (mu-opioid receptor (MOR); [4]) [µM],Ki (mu-opioid receptor (MOR); [5]) [µM],Ki (mu-opioid receptor (MOR); [6]) [µM],"Ki [1, 3] [µM]","Ki [1, 4] [µM]","Ki [1, 5] [µM]","Ki [1, 6] [µM]","Ki [2, 7] [µM]","Ki [2, 8] [µM]","Ki [2, 6] [µM]","Ki [2, 9] [µM]"
CC(C)C[C@H]1CN([C@@H](Cc2ccc(O)cc2)CN2C(=N)NC[C@@H]2C)C(=N)N1 [1968-39],1.24,1.77,1.5,1.5,4.09,7.72,5.9,5.9,4.15,3.83,3.83,3.51
Cc1cc(O)cc(C)c1C[C@H]1CN([C@@H](Cc2ccc(O)cc2)CN2C(=N)NC[C@@H]2C)C(=N)N1 [1968-40],0.0364,0.0488,0.0426,0.043,0.235,0.263,0.249,0.249,1.52,1.42,1.42,1.32
CC(C)C[C@@H](CN1C(=N)NC[C@@H]1C)N1C[C@H](Cc2ccccc2)NC1=N [1968-41],5.62,7.39,6.51,6.51,23.9,22,23,22.9,7.31,–,–,–
CC(C)C[C@@H](CN1C(=N)NC[C@@H]1C)N1C[C@H](Cc2ccc(O)cc2)NC1=N [1968-42],2.13,2.47,2.3,2.3,12.3,12.3,12.3,12.3,20.6,55.7,55.7,90.8
CC(C)C[C@H]1CN([C@@H](CC(C)C)CN2C(=N)NC[C@@H]2C)C(=N)N1 [1968-43],7.81,10.7,9.26,9.26,36,53,44.5,44.5,9.25,7.97,7.97,6.69
Cc1cc(O)cc(C)c1C[C@H]1CN([C@@H](CC(C)C)CN2C(=N)NC[C@@H]2C)C(=N)N1 [1968-44],0.157,0.244,0.2,0.2,1.83,1.42,1.63,1.63,10.2,7.63,7.63,5.06
Cc1cc(O)cc(C)c1C[C@H]1CNC(=N)N1C[C@H](Cc1ccccc1)N1C[C@H](Cc2ccccc2)NC1=N [1968-49],0.0534,0.0847,0.0691,0.069,1.23,1.21,1.22,1.22,0.615,0.543,0.543,0.472
Cc1cc(O)cc(C)c1C[C@H]1CNC(=N)N1C[C@H](Cc1ccccc1)N1C[C@H](Cc2ccc(O)cc2)NC1=N [1968-50],0.0616,0.114,0.0878,0.088,1.9,1.74,1.82,1.82,1.1,0.896,0.896,0.69
Cc1cc(O)cc(C)c1C[C@H]1CNC(=N)N1C[C@H](Cc1ccccc1)N1C[C@H](CC(C)C)NC1=N [1968-51],0.126,0.162,0.144,0.144,0.872,0.639,0.755,0.755,2.58,2.55,2.56,2.53
Cc1cc(O)cc(C)c1C[C@H]1CN([C@@H](Cc2ccccc2)CN2C(=N)NC[C@@H]2Cc2c(C)cc(O)cc2C)C(=N)N1 [1968-52],0.0834,0.102,0.0928,0.093,1.2,1.24,1.22,1.22,0.582,0.551,0.551,0.521
Cc1cc(O)cc(C)c1C[C@H]1CNC(=N)N1C[C@H](Cc1ccc(O)cc1)N1C[C@H](Cc2ccc(O)cc2)NC1=N [1968-54],0.0723,0.0564,0.0643,0.064,1.46,1.6,1.53,1.53,3.55,3.28,3.28,3.01
Cc1cc(O)cc(C)c1C[C@H]1CN([C@@H](Cc2ccc(O)cc2)CN2C(=N)NC[C@@H]2Cc2c(C)cc(O)cc2C)C(=N)N1 [1968-56],0.055,0.0699,0.0625,0.062,0.736,1.25,0.991,0.991,1.33,1.3,1.3,1.26
Cc1cc(O)cc(C)c1C[C@H]1CNC(=N)N1C[C@H](CC(C)C)N1C[C@H](Cc2ccccc2)NC1=N [1968-57],0.0596,0.0741,0.0668,0.067,0.371,0.679,0.525,0.525,1.4,1.24,1.24,1.07
Cc1cc(O)cc(C)c1C[C@H]1CNC(=N)N1C[C@H](CC(C)C)N1C[C@H](Cc2ccc(O)cc2)NC1=N [1968-58],0.0551,0.062,0.0586,0.059,0.542,0.775,0.659,0.659,1.15,0.896,0.896,0.638
